Data on six compounds can be found in patent US9023875B2, “Macrocyclic compounds and methods of treatment” (University of Florida Research Foundation, Inc., priority 2007, dated 2015).

Like-named read-outs stand apart in the source and are kept apart here. Starred links: 1 amine or outer side, 2 acyl side, 3 side chain; linkers in the order of their positions; H or OH if unused. Positions of bridges follow the written chain, without caps; N, C: chain ends. Non-standard residues stand in square brackets, D forms with d. Residues, ends and D or L forms follow the SMILES beside them. Chains are numbered I, II in the order given. Actinocin(9to1) = Cc1c2oc3c(C)ccc(C(=O)[*:1])c3nc-2c(C(=O)[*:2])c(N)c1=O; NMeV = CN[C@H](C(=O)O)C(C)C; Sar = CNCC(=O)O

The test system of data set [1] is MDA-MB-231 cells (highly invasive transformed human mammary epithelial cells). In words: cells. It is filed as cell-based. The protocol: (§1) Cell culture medium was purchased from Invitrogen and fetal bovine serum (FBS) from Hyclone. Cells were propagated and maintained in DMEM medium (high glucose) supplemented with 10% FBS at 37° C. humidified air and 5% CO2.
(§2) Cells suspended in DMEM containing 10% FBS were plated in 96-well plates (MDA-MB-231: 12,000 cells; NMuMG: 5,000 cells; U20S: 5,000 cells; HT29: 10,000 cells; 1MR-32: 30,000 cells; NIH3T3: 5,000 cells) incubated (37° C., 5% CO2) and 24 h later treated with various concentrations of compound 1 or solvent control (1% EtOH). After another 48 h of incubation, cell viability was measured using MITT according to manufacturer's instructions (Promega).
(§3) MDA-MB-231 and NMuMG cells were also treated with paclitaxel (in DMSO), actinomycin D (in DMSO) and doxorubicin (in H2O) and corresponding solvent control (1%) in the same manner. GI50 and LC50 values were calculated as previously described (K. D. Paull, E. Hamel, L. Malspeis, In Cancer Chemotherapeutic Agents, W. E. Foye, Ed., American Chemical Society, Washington, D.C., 1995, pp. 10-11).
(§4) [formula] [formula] [T=absorbance in treated wells (48 h); T0=absorbance at time zero; C=absorbance in control wells (48 h)]

In data set [2] the test system is NIH3T3 cells (nontransformed fibroblasts). In words: cells. Type of data set: cell-based. Particulars: for GI50: read-out: Growth-inhibitory activity (GI50), NIH3T3. How it is done: as §1, §2, §3, §4
The subject of data set [3] is NMuMG cells (nontransformed murine mammary epithelial cells). In words: in vitro. Type of data set: cell-based. Particulars: 48 h, read-out: Growth-inhibitory activity (GI50), NMuMG. The protocol: as §1, §2, §3, §4
For data set [4], the system named is U2OS cells (fibroblastic osteosarcoma). In words: cells. The conditions noted are these: for GI50: read-out: Growth-inhibitory activity (GI50), U2OS. Type of data set: cell-based. The protocol: as §1, §2, §3, §4
Data set [5] relates to HCT-116 cells. Description: HCT-116 growth inhibition. Type of data set: cell-based. The conditions noted are these: Homo sapiens.
The test system of data set [6] is HDAC. In words: In vitro cellular HDAC activity assay (fluor de Lys substrate) in HCT-116 cells. Type of data set: cell-based. Particulars: 8 h. How it is done: HCT-116 cells are seeded in 100 μL of medium per well at a density of 3.5×10^3 cells/well and grown for 24 h in a sterile 96-well solid bottom plate. The assay is carried out according to the manufacturer's instructions (BIOMOL). Briefly, after 24 h the medium iss replaced with 50 μL/well of medium containing 200 μM fluor de Lys™ substrate and 1 μM of trichostatin A (positive control) and test compounds (largazole, acetyl derivative) ranging from 1 μM to 3.2 nM ([…]) and thiol compound ranging from 10 μM to 300 pM. Plates are incubated at 37° C. for 8 h. After the treatment time, 50 μL per well of 1× fluor de Lys™ Developer containing TSA at 2 μM iss added. After developer addition, plates are incubated for 15 min at 37° C. and fluorescence is read (Ex 360 nm, Em 460 nm).

For data set [7], the system named is HeLa nuclear extract HDACs (class I HDACs 1, 2, and 3). Description: Cell-free enzymatic assay with HDAC-enriched HeLa nuclear protein extract. It is filed as biochemical. The conditions noted are these: fluor de Lys substrate. The protocol:
Largazole (1) inhibited HDAC activity from a HeLa cell nuclear protein extract rich in class I HDACs 1, 2, and 3 (BIOMOL); however, it is possible that the thioester is cleaved under assay conditions. To investigate that thiol 9 is a reactive species, we liberated 9 from the acetyl analog 8 of largazole (1) and measured enzymatic activity directly; thiol 9 inhibited the HDACs in the nuclear extract of HeLa cells with a similar IC50 value (Table 3).
Assay buffer (25 ul in blank and 10 ul in control), 1 μM triehostatin and test inhibitors (ranging from 10 μM to 300 pM) are added to test sample wells of the microtiter plate. HDAC-enriched nuclear protein extract from HeLa cells (BIOMOL) (5 μg in 15 uL) is added to all wells except in the no-enzyme control. The assay plate is equilibrated at 37° C., and then 25 μl of substrate fluor de Lys™ substrate is added to a final concentration of 116 μM. HDAC reaction is allowed to proceed for 15 min and then stopped by addition of 50 μl per well of 1× fluor de Lys™ Developer containing TSA at 2 μM. After developer addition, plates are incubated for 15 min at 37° C. and fluorescence is read (Ex 360 nm, Em 460 nm).

Data set [8] is described as follows: in vitro. Type of data set: cell-based, murine. The conditions noted are these: mouse, NMuMG cells, MTT, read-out: LC50 (cytotoxicity), NMuMG. The protocol: as §1, §2, §3, §4
Data set [9] deals with HT29 cells (colon cancer cell line). In words: Cell viability (MTT) assay, HT29. The conditions noted are these: Homo sapiens, HT-29, 48 h. It is filed as cell-based. How it is done: as §1, §2, §3, §4
The subject of data set [10] is IMR-32 cells (neuroblastoma cell line). Description: Cell viability (MTT) assay, IMR-32. It is filed as cell-based. The conditions noted are these: Homo sapiens, 48 h. How it is done: as §1, §2, §3, §4
For data set [11], the system named is acetylated histone H3. In words: Immunoblot analysis of acetylated histone H3 in HCT-116 cells. Type of data set: cell-based. Particulars: 8 h. The protocol:
HCT-116 cells (650,000 cells/dish) are seeded in 10-cm dishes and 24 h later treated with various concentrations of largazole, trichostatin or solvent controls (EtOH for largazole and DMSO for trichostatin). Following incubation for 8 h, whole-cell lysates are prepared using PhosphoSafe lysis buffer (Novagen), proteins extracted, and protein concentration measured using the BCA method (Pierce). Cell lysates containing equal amounts of protein are separated by SDS-PAGE, transferred to PVDF membranes, probed with antibodies and detected with the Supersignal Femto Western blotting kit (Pierce). Anti-acetyl-histone H3 (Lys9/18) and anti-histone H3 primary antibodies are obtained from Millipore and horseradish peroxidase conjugated anti-rabbit secondary antibody is purchased from Cell Signaling.

[12] abbreviates: Homo sapiens, MDA-MB-231, 48 h, MDA-MB-231 cells, 48 h, MTT, read-out: Growth-inhibitory activity (GI50), MDA-MB-231.
The mark [13] stands for this setting: Mus musculus, NIH3T3 cells, 48 h, MTT.
Setting [14] is: Mus musculus, Epithelial cell, NMuMG cells, MTT.
The mark [15] stands for this setting: Homo sapiens, U2OS cells, 48 h, MTT.

Take `Cc1c2oc3c(C)ccc(C(=O)N[C@@H]4C(=O)N[C@H](C(C)C)C(=O)N5CCC[C@H]5C(=O)N(C)CC(=O)N(C)[C@@H](C(C)C)C(=O)O[C@@H]4C)c3nc-2c(C(=O)N[C@@H]2C(=O)N[C@H](C(C)C)C(=O)N3CCC[C@H]3C(=O)N(C)CC(=O)N(C)[C@@H](C(C)C)C(=O)O[C@@H]2C)c(N)c1=O` [Actinomycin D, reference compound] (I: T[dV]P[Sar][NMeV] / II: T[dV]P[Sar][NMeV]; ester I:1-I:C, II:1-II:C; linker I:N-II:N via Actinocin(9to1)): the GI50 in [1] (MDA-MB-231 cells, 48 h, MTT, read-out: Growth-inhibitory activity (GI50), MDA-MB-231) is 0.5 nM; in data set [2] (NIH3T3 cells, 48 h, MTT), 0.4 nM; in data set [3] (NMuMG cells, MTT), 0.3 nM; in data set [4] (U2OS cells, 48 h, MTT) it was 0.8 nM.
On to `CC(=O)SCCC=CC1CC(=O)NCc2nc(cs2)C2=NC(C)(CS2)C(=O)NC(C(C)C)C(=O)O1` (centres unmarked) [Compound 8], for which, in data set [5], the GI50 is 33 ± 2 nM. Further, the figures for the IC50 in [6] and in [7] were 50 ± 18 nM and 52 ± 27 nM, respectively.
With `CC(C)C1NC(=O)C2(C)CSC(=N2)c2csc(n2)CNC(=O)CC(C=CCCS)OC1=O` (centres unmarked) [Compound 9], in data set [5], the GI50 stood at 38 ± 5 nM. In addition, the results for the IC50 in data set [6] and in [7] were 209 ± 15 nM and 42 ± 29 nM, respectively.
On to `COc1cccc2c1C(=O)c1c(O)c3c(c(O)c1C2=O)C[C@@](O)(C(=O)CO)C[C@@H]3O[C@H]1C[C@H](N)[C@H](O)[C@H](C)O1` [Doxorubicin, reference compound], for which the GI50 was found to be 310 nM in data set [1] (setting [12]), 47 nM in data set [2] (setting [13]), 63 nM in [3] (setting [14]) and 220 nM in data set [4] (setting [15]).
On to `CCCCCCCC(=O)SCC/C=C/[C@@H]1CC(=O)NCc2nc(cs2)C2=N[C@@](C)(CS2)C(=O)N[C@@H](C(C)C)C(=O)O1` [Largazole (1), largazole], for which, in [8], the CC50 at 48 h stood at 272 nM. Moreover, the GI50 came out at 8 nM in [1] (Homo sapiens, MDA-MB-231, 48 h, read-out: Growth-inhibitory activity (GI50), MDA-MB-231, MDA-MB-231 cells, 48 h, MTT); 7.7 nM in data set [1] (read-out: Growth-inhibitory activity (GI50), MDA-MB-231, MDA-MB-231 cells, 48 h, MTT); 480 nM in data set [2] (Mus musculus, NIH3T3, 48 h); 122 nM in data set [3] (Mus musculus, Epithelial cell); 55 nM in [4] (Homo sapiens, U2OS, 48 h); 12 nM in data set [9]. Besides, the GI50 amounted to 16 nM in data set [10] and 44 ± 10 nM in data set [5]. The “Differential growth-inhibitory activity between transformed and nontransformed epithelial cells” value in data set [1] (MDA-MB-231 vs NMuMG (GI50)) was determined as 15 fold. For the same compound, the “Toxicity (cytotoxicity) in NIH3T3” value in data set [2] (NIH3T3 cells, 48 h, MTT) is “no apparent toxicity”. Further, the CC50 in [4] (Homo sapiens, U2OS, 48 h, read-out: LC50 (cytotoxicity), U2OS) stood at 94 nM; in data set [9] (read-out: LC50 (cytotoxicity), HT29), 22 nM. Also, the “Differential growth-inhibitory activity between transformed and nontransformed fibroblasts” value in [4] (U2OS vs NIH3T3 (GI50)) is given as 8 fold. Also, the IC50 in data set [6] came out at 51 ± 3 nM; in [7], 37 ± 11 nM. In data set [11], the “Immunoblot of endogenous HDAC substrate acetylated histone H3” value is given as “same dose-response relationship”.
`CC(=O)O[C@H]1C(=O)[C@@]2(C)[C@H]([C@H](OC(=O)c3ccccc3)[C@]3(O)C[C@H](OC(=O)[C@H](O)[C@@H](NC(=O)c4ccccc4)c4ccccc4)C(C)=C1C3(C)C)[C@]1(OC(C)=O)CO[C@@H]1C[C@@H]2O` [Paclitaxel, reference compound]: the GI50 in [1] (setting [12]) worked out at 7 nM; in data set [2] (setting [13]), 6.4 nM; in data set [3] (setting [14]), 5.9 nM; in [4] (setting [15]), 12 nM.
